Measurements from PubChem BioAssay AID687022 (Broad Institute, 2013).
Active and inactive are the calls of the source.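 Rule for the calls: active = Fitted curve of melting temperature shift crosses the 1.0 threshold at or below the sample's highest valid tested concentration; inconclusive = Flat fit with activity 30 to 70, or invalid fit; inactive = Opposite direction, flat within 30, or no crossing.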

The molecules below were run against Fibroblast growth factor 22 (Homo sapiens) (UniProt Q9HCT0) (assay: FGF22 ligand-induced thermal stabilization – biophysical, thermal shift, cherry-pick, FGF22 synaptogenesis inhibitor project, dose response (AID 687022)). Details: recombinant FGF22 thermal shift, SYPRO orange melting.
Sequence of Fibroblast growth factor 22 (Homo sapiens) (Q9HCT0 whole entry, looked up): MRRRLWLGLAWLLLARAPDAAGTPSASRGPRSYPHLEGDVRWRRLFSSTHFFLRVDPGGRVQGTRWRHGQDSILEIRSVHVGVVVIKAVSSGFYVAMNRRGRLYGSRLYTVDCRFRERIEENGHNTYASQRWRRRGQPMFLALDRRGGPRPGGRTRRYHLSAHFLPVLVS

| AbsAC1 (concentration giving Tm-shift threshold 1.0) | Compound |
| --- | --- |
| > 5 µM (inactive) | CCc1nnc(NS(=O)(=O)c2ccc(Nc3ccc([N+](=O)[O-])c4nonc34)cc2)s1 |
| 20.8 µM | CCc1ccc(N2CC(C(=O)OCC(=O)Nc3ccc(C#N)cc3)CC2=O)cc1 (centres undefined) |
| 7.5 µM | S=C(NCCN1CCOCC1)Nc1ccc(-c2nc3ccccc3[nH]2)cc1 |
| 7.7 µM | O=C(N/N=C/c1c[nH]c2ccc(Br)cc12)C1CC1 |
| 3.78 µM | CCCNC(=O)COC(=O)c1ccccc1C(=O)N(C)C1CCCCC1 |
| 4.98 µM | O=C1Nc2cc(Cl)c(Cl)cc2N(O)N1c1ccc(Cl)cc1 |
| > 38 µM (inactive) | COc1ccc(S(=O)(=O)N(NC2=NS(=O)(=O)c3ccccc32)C(=O)C(C)C)cc1 |
| 21.9 µM | C/C(=N\NC(=O)c1cccc(S(=O)(=O)N2CCOCC2)c1)c1ccc(OC(F)F)cc1 |
| 6.03 µM | COC(=O)CN1C(=S)N(c2ccc(Cl)cc2)C(=O)C1CC(=O)Nc1ccc(F)cc1 (centres undefined) |
| 16.5 µM | O=C(CNC(=O)c1ccc(S(=O)(=O)N2CCCC2)cc1)N/N=C/c1ccc(F)cc1 |
| 4.32 µM | O=C(Nc1ccc(O)cc1)c1cccc(Oc2ccc([N+](=O)[O-])cc2)c1 |
| 16 µM | Cn1cc([N+](=O)[O-])c(C(=O)Nc2ccc3nc(-c4ccccc4)[nH]c3c2)n1 |
| 6.63 µM | NC(=NCCc1c[nH]c2ccccc12)NS(=O)(=O)c1ccc(F)cc1 |
| 11.9 µM | Oc1cc(O)cc(C=Cc2ccc(O)c(O)c2)c1 |
| 26.6 µM | COc1ccc(S(=O)(=O)Nc2ccc(NC(C)=O)cc2)cc1Cl |
| 4.99 µM | COc1cccc(NC(=O)N(C)C[C@H]2Oc3cc(-c4ccccc4F)ccc3S(=O)(=O)N([C@H](C)CO)C[C@H]2C)c1 |
| 12.7 µM | CC(=O)Nc1ccc(S(=O)(=O)Nc2nc3ccccc3nc2Nc2cccc(S(N)(=O)=O)c2)cc1 |
| 16.1 µM | COC(=O)CN1C(=S)N(c2ccc(F)cc2)C(=O)C1CC(=O)Nc1ccccc1 (centres undefined) |
| 6.77 µM | COC12CC(=O)C(C(C)=O)=C(O)C1(C)c1c(O)c(C)c(O)c(C(C)=O)c1O2 (centres undefined) |
| 9.29 µM | O=S(=O)(O)c1cccc2cccc(Nc3ccccc3)c12 |
| 25.7 µM | CC(C)(C)S(=O)(=O)/C(C#N)=N/Nc1ccc(Cl)cc1 |
| 4.71 µM | Cc1ccc(S(=O)(=O)NCCC(=O)Nc2ccc(C)c(Cl)c2)cc1C |
| 3.85 µM | CC(=O)c1ccc(NC(=O)c2noc(C(C)C)c2[N+](=O)[O-])cc1 |
| 19.9 µM | Cc1[nH]c2ccccc2c1N=Nc1cc(C(=O)O)cc(C(=O)O)c1 |
| 6.04 µM | COc1ccc(N2C(=O)C(CC(=O)Nc3ccccc3)N(Cc3ccc4c(c3)OCO4)C2=O)cc1 (centres undefined) |
| 16.6 µM | O=C(CN1C(=O)NC2(CCOc3ccccc32)C1=O)Nc1ccc(Br)cc1F (centres undefined) |
| 39.8 µM | COc1ccc(NC(=O)N(C)C[C@@H]2Oc3ccc(NC(=O)Cc4ccccc4)cc3C(=O)N([C@H](C)CO)C[C@H]2C)cc1 |

The remaining lines, values behind:

| Compound | AbsAC1 (concentration giving Tm-shift threshold 1.0) |
| --- | --- |
| Cc1noc(C)c1NC(=O)N[C@@H]1C=C[C@H](CC(=O)Nc2ccc(-c3ccccc3)cc2)O[C@@H]1CO | 5.28 µM |
| CCc1ccc(N2CC(C(=O)OCC(=O)Nc3ccc(C(C)=O)cc3)CC2=O)cc1 (centres undefined) | 17.7 µM |
| Cc1nc2c(C)cccc2cc1C(=O)N/N=C/c1ccc(O)cc1 | 14.8 µM |
| CC(C)CCNC(=O)c1onc(CSc2ccncc2)c1C(=O)NCCC(C)C | 3.89 µM |
| CCN1C(=O)C(CC(=O)Nc2ccc(OC)cc2)N(CCc2ccc(OC)cc2)C1=S (centres undefined) | 6.95 µM |
| COc1ccc(/C=N/Nc2ccc([N+](=O)[O-])cc2)cc1O | 4.37 µM |
| COc1ccccc1-c1ccc2c(c1)O[C@@H](CN(C)C(=O)Nc1cccc(F)c1)[C@H](C)CN([C@@H](C)CO)S2(=O)=O | 20.6 µM |
| CC(=O)c1ccc(NC(=O)Nc2cccnc2)cc1 | 7.05 µM |
| O=C1C(Cl)=C(NS(=O)(=O)c2ccc([N+](=O)[O-])cc2)C(=O)c2ccccc21 | 7.4 µM |
| COc1ccc(Cc2nnc(NS(=O)(=O)c3ccccc3)s2)cc1 | > 19.5 µM (inactive) |
| CC(C)c1c(C(=O)N/N=C/c2c[nH]c3ccccc23)nnn1-c1nonc1N | 1.67 µM |
| O=C(Nc1ccc(S(=O)(=O)N2CCCC2)cc1)c1ccccc1 | 8.57 µM |
| Nc1nc(O)c(Sc2ccccc2[N+](=O)[O-])c(=O)[nH]1 | 2.7 µM |
| CC(=O)Nc1cccc(NC(=O)c2ccc3[nH]c(C)c(C)c3c2)c1 | 5.11 µM |
| COc1cc(/C=C2/S/C(=N/S(=O)(=O)Cc3ccccc3)NC2=O)c([N+](=O)[O-])cc1OC | 3.72 µM |
| O=[N+]([O-])c1cccc(S(=O)(=O)Nc2ccc(-c3ccc(N4CCCC4)nn3)cc2)c1 | 19.1 µM |

| Compound | AbsAC1 (concentration giving Tm-shift threshold 1.0) |
| --- | --- |
| O=[N+]([O-])c1cc(CS(=O)(=O)Oc2ccc(Cl)cc2)c(O)c([N+](=O)[O-])c1 | > 5 µM (inactive) |
| Cn1c(=O)c2c(-c3ccccc3)n(-c3cc(Cl)c([N+](=O)[O-])cc3O)cc2n(C)c1=O | 2.38 µM |
| CC1CCN(Cc2c(C(=O)N/N=C/c3ccc(OC(C)C)cc3)nnn2-c2nonc2N)CC1 | 14 µM |
| O=C(Nc1ccc2c(c1)OCO2)c1ccc(NC2CC2)c([N+](=O)[O-])c1 | 17.8 µM |
| Cc1noc(NS(=O)(=O)c2ccc(NC(=O)c3cccc(S(=O)(=O)N(C)c4ccccc4)c3)cc2)c1C | 4.7 µM |
| CC(=O)Nc1ccc(/C(C)=N/Nc2nc(Nc3ccccc3)nc(N3CCOCC3)n2)cc1 | 7.91 µM |
| O=C(Nc1ccc(S(=O)(=O)N2CCCC2)cc1)c1cccs1 | 9.33 µM |
| Clc1ccc(Nc2ccc(NCc3ccccc3)nn2)cc1 | 2.73 µM |
| O=C(Nc1nnc(C(F)(F)F)s1)c1ccc(Br)s1 | 15.6 µM |
| CN1C(=O)c2cc(NC(=O)c3cccc(F)c3)ccc2OC[C@H]2O[C@@H](CC(=O)N3CCc4ccccc4C3)CC[C@H]21 | 18.4 µM |
| C[C@@H]1CN([C@H](C)CO)S(=O)(=O)c2ccc(C3=CCCC3)cc2O[C@@H]1CN(C)C(=O)Nc1ccc2c(c1)OCO2 | 20.2 µM |
| C[C@@H]1CN([C@@H](C)CO)C(=O)c2cc(NS(=O)(=O)c3ccc(Cl)cc3)ccc2O[C@@H]1CN(C)S(=O)(=O)c1ccc(F)cc1 | 21.9 µM |
| O=C(Nc1cc(Cl)cc(Cl)c1)N[C@@H]1CC[C@@H](CCNS(=O)(=O)c2cccc(F)c2)O[C@H]1CO | 5.67 µM |
| O=C(Cn1cc(COc2ccc(Br)cc2)nn1)c1ccc(O)cc1 | 7.63 µM |
| COc1cc(-c2nc(C)c(C(C)=O)n2O)ccc1OCC(=O)Nc1ccc(Cl)cc1 | 10.9 µM |
| O=C(C[C@H]1CC[C@@H]2[C@H](COC[C@H](O)CN2S(=O)(=O)c2cccc(Cl)c2)O1)Nc1ccccc1 | 1.93 µM |
